Results: US12391670B2, “Functionalized aminotriazines” (LEADXPRO AG, priority 2018, dated 2025)
Where two headings read alike, the source gives them in different places. Values belong to the molecule of their own block, whether it stands above or below them.

Columns and labels:
[1] = target: human A2A receptor (Homo sapiens (Human), UniProt P29274); assay: Radioligand binding competition assay, [3H]-NECA, membranes from HEK293 cells transfected with human A2A receptor; conditions: radioligand binding
human A2A receptor, sequence (P29274 whole entry): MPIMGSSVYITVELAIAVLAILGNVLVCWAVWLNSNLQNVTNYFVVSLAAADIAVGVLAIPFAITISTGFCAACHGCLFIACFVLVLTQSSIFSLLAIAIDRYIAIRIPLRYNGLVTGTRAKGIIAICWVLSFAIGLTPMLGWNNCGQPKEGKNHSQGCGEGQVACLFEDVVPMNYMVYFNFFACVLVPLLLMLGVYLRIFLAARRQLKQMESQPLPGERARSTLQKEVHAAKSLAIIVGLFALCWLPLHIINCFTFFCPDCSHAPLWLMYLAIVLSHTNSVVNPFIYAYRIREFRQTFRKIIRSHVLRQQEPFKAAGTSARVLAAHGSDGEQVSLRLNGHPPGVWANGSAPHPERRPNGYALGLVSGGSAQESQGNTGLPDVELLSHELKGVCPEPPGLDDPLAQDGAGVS
Method: (§1) For all four adenosine receptors (A1, A2A, A2B and A3) filtration binding assay was performed. Radioligand binding competition assay was done in duplicates in the wells of a 96-well plate (Master Block, Greiner, 786201) containing binding buffer, receptor membrane extracts, a fixed concentration of tracer and test compound at increasing concentrations. In order to eliminate effect of buffer components, binding buffer was the same for all four receptors and contained: 50 mM Tris-HCl pH 7.4, 5 mM MgCl2, 1 mM EDTA, 150 mM NaCl, 0.1% Na-azide, and 5 U/ml adenosine-deaminase. Nonspecific binding was determined by co-incubation with 200-fold excess of cold competitor. In all radioligand binding experiments, the samples were incubated in a final volume of 0.1 ml for 60 minutes at 25° C. and then filtered over Unifilter plates (Perkin Elmer) pre-treated for 2 hours to limit tracer non-specific binding. Filters were washed five times with 0.5 ml of ice-cold washing buffer (50 mM Tris-HCl pH 7.4, 5 mM MgCl2, 1 mM EDTA) and 50 μl of Microscint 20 (Perkin Elmer) were added to each filter. The plates are incubated 15 min at room temperature on an orbital shaker and then counted with a TopCount™ for 1 min/well.
For A2A receptor the assay was performed with [^3H]-NECA and membranes from HEK293 cells transfected with human A2A receptor (Euroscreen FAST-002B).

[2] = target: T1, human A2B receptor (Homo sapiens (Human), UniProt P29275); assay: Radioligand binding competition assay, [3H]-DPCPX, membranes from HEK293 cells transfected with human A2B receptor
T1 sequence (P29275 whole entry): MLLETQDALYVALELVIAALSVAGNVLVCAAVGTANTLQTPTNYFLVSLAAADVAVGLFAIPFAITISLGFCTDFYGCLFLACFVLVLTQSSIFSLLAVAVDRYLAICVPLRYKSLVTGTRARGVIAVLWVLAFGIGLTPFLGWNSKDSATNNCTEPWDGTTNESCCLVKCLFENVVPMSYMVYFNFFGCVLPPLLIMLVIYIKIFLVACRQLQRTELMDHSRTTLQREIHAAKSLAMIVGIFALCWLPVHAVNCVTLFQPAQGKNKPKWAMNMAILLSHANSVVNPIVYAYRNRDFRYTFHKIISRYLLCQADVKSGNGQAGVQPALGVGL
Method: as §1
For A2B, the assay was carried with [^3H]-DPCPX and membranes prepared from HEK293 cells transfected with human A2B receptor (Euroscreen FAST-003B).

[3] = target: human A1 receptor (Homo sapiens (Human), UniProt P30542); assay: Radioligand binding competition assay, [3H]-DPCPX, membranes from CHO-K1 cells transfected with human A1 receptor
human A1 receptor, sequence (P30542 whole entry): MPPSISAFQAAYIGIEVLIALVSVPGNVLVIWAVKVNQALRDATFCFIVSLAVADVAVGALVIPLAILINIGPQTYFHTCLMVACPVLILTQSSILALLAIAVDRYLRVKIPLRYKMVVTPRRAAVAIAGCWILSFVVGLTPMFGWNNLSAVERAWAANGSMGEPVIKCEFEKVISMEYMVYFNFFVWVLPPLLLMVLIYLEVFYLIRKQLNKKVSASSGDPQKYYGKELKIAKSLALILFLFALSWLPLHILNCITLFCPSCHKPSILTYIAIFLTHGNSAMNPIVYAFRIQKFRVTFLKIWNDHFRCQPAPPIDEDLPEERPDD
Method: as §1
For A1 receptor the assay was performed with [^3H]-DPCPX and membranes from CHO-K1 cells transfected with human A1 receptor (Euroscreen FAST-00B).

[4] = target: T1, human A2B receptor; assay: cAMP assay (b), HEK293 cells expressing recombinant human A2B receptor; format: cell-based; conditions: reference agonist at EC80, read-out: cAMP pIC50 (converted)
Method: (§2) Two assays have been employed, one using HEK293 with A2B receptors endogenously expressed (named cAMP assay (a) in the following) and a second one using HEK293 cells impressing recombinant human A2B receptors (named cAMP assay (b) in the following)
Dose response curves were performed in parallel with the reference compounds. 12 μl of cells were mixed with 6 μl of the test compound at increasing concentrations and then incubated 10 min. Thereafter 6 μl of the reference agonist was added at a final concentration corresponding to the historical EC80. The plates were then incubated for 30 min at room temperature. After addition of the lysis buffer and 1 hour incubation, cAMP concentrations were estimated, according to the manufacturer specification, with the HTRF kit.

[5] = target: A2B receptors endogenously expressed in HEK293 cells (Homo sapiens (Human), UniProt P29275); assay: cAMP assay (a), HEK293 cells with A2B receptors endogenously expressed; format: cell-based; conditions: stimulated with 5 μM NECA
A2B receptors endogenously expressed in HEK293 cells, sequence (P29275 whole entry): as the sequence (P29275 whole entry) above
Method: as §2
Real-time cAMP-assays in live cells were performed in HEK293 cells stably expressing the EPAC-sensor (I. Vedel, et al., 2015, J. Biomol. Screen. 20, 849-857).
In order to test for cAMP inhibition by preferred compounds of formula I and antagonists, respectively, from this invention, endogenous A2A and A2B expression in above cell lines was exploited. To run the assay, cells were incubated in 80 μl assay buffer for 15 minutes at room temperature. The assay buffer was composed of Hanks Balanced Salt Solution (Gibco) with 20 mM HEPES, pH 7.4 and […] adenosine-deaminase. All cAMP assays were run at room temperature using a PHERAstar FSX plate reader. The FRET donor (mCerulean) was excited at 430 nm. Fluorescence emission was measured at 480 nm and 530 nm for 65 minutes (cycle time 1.45 min). Prior to stimulation fluorescence was measured for 10 min (baseline). Subsequently cells were stimulated with 5 μM NECA (5′-(N-Ethylcarboxamido)adenosine; Tocris, Cat.-No:35920-39-9). Sharply 10.15 min after stimulation the compounds were added at increasing concentrations (between 0 and 200 μM) and fluorescence was recorded for 40 min. Each compound concentration was measured in duplicates.

[6] = target: human A3 receptor (Homo sapiens (Human), UniProt P0DMS8); assay: Radioligand binding competition assay, [125I]-MECA, membranes from CHO-K1 cells transfected with human A3 receptor
human A3 receptor, sequence (P0DMS8 whole entry): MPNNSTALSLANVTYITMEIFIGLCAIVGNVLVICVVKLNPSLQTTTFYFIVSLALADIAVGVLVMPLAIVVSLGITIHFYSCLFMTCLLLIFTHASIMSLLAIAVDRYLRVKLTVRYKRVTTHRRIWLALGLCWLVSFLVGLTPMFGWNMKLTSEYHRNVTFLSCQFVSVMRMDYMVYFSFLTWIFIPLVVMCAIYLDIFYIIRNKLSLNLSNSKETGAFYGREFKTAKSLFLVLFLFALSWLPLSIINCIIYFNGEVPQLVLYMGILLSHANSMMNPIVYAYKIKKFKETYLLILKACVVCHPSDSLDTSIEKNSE
Method: as §1
For A3, the assay was carried out with [^125I]-MECA and membranes from CHO-K1 cells transfected with human A3 receptor (Euroscreen FAST-004B).

[7] = read-out: cAMP pIC50 (converted)

- Human A2A Receptor pKi [1]: 6.1
- Human A2B Receptor pKi [2]: 7.84
SMILES: OCc1ccc(Nc2nnc(-c3ccncc3F)c(-c3ccccc3F)n2)cc1F [Example 37, (2-fluoro-4-{[5-(2-fluorophenyl)-6-(3-fluoropyridin-4-yl)-1,2,4-triazin-3-yl]amino}phenyl)methanol]

- Human A2A Receptor pKi [1]: 5.84
- Human A1 Receptor pKi [3]: 6.26
- Human A3 Receptor pKi [6]: 6.42
- Human A2B Receptor pKi [2]: 7.65
- IC50 [4]: 50.1 nM
SMILES: CC(C)(O)c1ccc(Nc2nnc(-c3ccncc3F)c(-c3ccccc3F)n2)cn1 [Example 38, 2-(5-{[5-(2-fluorophenyl)-6-(3-fluoropyridin-4-yl)-1,2,4-triazin-3-yl]amino}pyridin-2-yl)propan-2-ol]

- Human A1 Receptor pKi [3]: 5.00
- Human A2B Receptor pKi [2]: 6.68
SMILES: CCc1n[nH]c(Nc2nnc(-c3ccncc3F)c(-c3ccccc3F)n2)n1 [Example 18, N-(3-ethyl-1H-1,2,4-triazol-5-yl)-5-(2-fluorophenyl)-6-(3-fluoro-4-pyridyl)-1,2,4-triazin-3-amine]

- Human A2A Receptor pKi [1]: 6
- Human A2B Receptor pKi [2]: 7.81
- IC50 [4]: 66.1 nM
SMILES: Cc1ccc(Nc2nnc(-c3ccncc3F)c(-c3ccccc3F)n2)cn1 [Example 21, 5-(2-fluorophenyl)-6-(3-fluoro-4-pyridyl)-N-(6-methyl-3-pyridyl)-1,2,4-triazin-3-amine]

- Human A2A Receptor pKi [1]: 6.00
- Human A2B Receptor pKi [2]: 7.58
SMILES: Fc1cnccc1-c1nnc(Nc2ccc(C3CC3)nc2)nc1-c1ccccc1F [Example 44, N-(6-cyclopropylpyridin-3-yl)-5-(2-fluorophenyl)-6-(3-fluoropyridin-4-yl)-1,2,4-triazin-3-amine]

- Human A2A Receptor pKi [1]: 4.49
- IC50 [1]: 32600 nM
- Human A2B Receptor pKi [2]: 6.42
- IC50 [2]: 420 nM
SMILES: Fc1cccc(Nc2nnc(-c3ccncc3F)c(-c3ccccc3F)n2)c1 [Example 12, 5-(2-fluorophenyl)-N-(3-fluorophenyl)-6-(3-fluoropyridin-4-yl)-1,2,4-triazin-3-amine]

- Human A2A Receptor pKi [1]: 6.56
- Human A2B Receptor pKi [2]: 7.42
SMILES: Fc1cnccc1-c1nnc(Nc2ccc(OCC(F)F)nc2)nc1-c1ccccc1F [Example 36, N-[6-(2,2-difluoroethoxy)pyridin-3-yl]-5-(2-fluorophenyl)-6-(3-fluoropyridin-4-yl)-1,2,4-triazin-3-amine]

- Human A2A Receptor pKi [1]: 6.25
- Human A2B Receptor pKi [2]: 7.89
SMILES: CC(O)c1ccc(Nc2nnc(-c3ccncc3F)c(-c3ccccc3F)n2)cn1 (stereo not shown) [Example 40, 1-(5-{[5-(2-fluorophenyl)-6-(3-fluoropyridin-4-yl)-1,2,4-triazin-3-yl]amino}pyridin-2-yl)ethan-1-ol]

- Human A1 Receptor pKi [3]: 5.58
- Human A2B Receptor pKi [2]: 7.33
- IC50 [4]: 107 nM
SMILES: Fc1cnccc1-c1nnc(Nc2ccc(C(F)(F)F)nc2)nc1-c1ccccc1F [Example 24, 5-(2-fluorophenyl)-6-(3-fluoro-4-pyridyl)-N-[6-(trifluoromethyl)-3-pyridyl]-1,2,4-triazin-3-amine]

- Human A2A Receptor pKi [1]: 6.57
- Human A2B Receptor pKi [2]: 7.43
- IC50 [4]: 105 nM
SMILES: COc1ccc(Nc2nnc(-c3ccncc3F)c(-c3ccccc3F)n2)cn1 [Example 23, 5-(2-fluorophenyl)-6-(3-fluoro-4-pyridyl)-N-(6-methoxy-3-pyridyl)-1,2,4-triazin-3-amine]

- Human A2A Receptor pKi [1]: <4.70
- Human A2B Receptor pKi [2]: 5.98
- IC50 [2]: 1170 nM
SMILES: Cc1nsc(Nc2nnc(-c3ccncc3F)c(-c3ccccc3F)n2)n1 [Example 13, N-(5-(2-fluorophenyl)-6-(3-fluoropyridin-4-yl)-1,2,4-triazin-3-yl)-3-methyl-1,2,4-thiadiazol-5-amine]

- Human A2A Receptor pKi [1]: 4.7
- Human A2B Receptor pKi [2]: 7.95
- IC50 [4]: 29.5 nM
SMILES: OCc1ccc(Nc2nnc(-c3ccncc3F)c(-c3ccccc3F)n2)cn1 [Example 22, [5-[[5-(2-fluorophenyl)-6-(3-fluoro-4-pyridyl)-1,2,4-triazin-3-yl]amino]-2-pyridyl]methanol]

The remaining lines, values behind:

SMILES: Fc1cnccc1-c1nnc(Nc2nc(C3CC3)n[nH]2)nc1-c1ccccc1F [Example 31, N-(3-cyclopropyl-1H-1,2,4-triazol-5-yl)-5-(2-fluorophenyl)-6-(3-fluoro-4-pyridyl)-1,2,4-triazin-3-amine]
- Human A1 Receptor pKi [3]: 5.00
- Human A2B Receptor pKi [2]: 7.27
- IC50 [4]: 275 nM

SMILES: Cc1nnc(Nc2nnc(-c3ccncc3F)c(-c3cccnc3)n2)s1 [Example 6, N-(6-(3-fluoropyridin-4-yl)-5-(pyridin-3-yl)-1,2,4-triazin-3-yl)-5-methyl-1,3,4-thiadiazol-2-amine]
- Human A2A Receptor pKi [1]: <4.70
- Human A2B Receptor pKi [2]: 5.37
- IC50 [2]: 4770 nM
- IC50 [5]: 3980 nM
- IC50 [5, 7]: 3980 nM

SMILES: CNC(=O)Nc1nnc(-c2ccncc2F)c(-c2cccnc2)n1 [Example 7, 1-(6-(3-fluoropyridin-4-yl)-5-(pyridin-3-yl)-1,2,4-triazin-3-yl)-3-methylurea]
- Human A2A Receptor pKi [1]: <4.70
- Human A2B Receptor pKi [2]: 5.25
- IC50 [2]: 6320 nM
- IC50 [5]: 6920 nM
- IC50 [5, 7]: 6920 nM

SMILES: O=C(Nc1nnc(-c2ccncc2F)c(-c2ccccc2F)n1)NC1CC1 [Example 35, 1-cyclopropyl-3-[5-(2-fluorophenyl)-6-(3-fluoro-4-pyridyl)-1,2,4-triazin-3-yl]urea]
- Human A2B Receptor pKi [2]: 6.55

SMILES: COc1ccc(NC(=O)Nc2nnc(-c3ccncc3F)c(-c3ccccc3F)n2)cc1 [Example 29, 1-[5-(2-fluorophenyl)-6-(3-fluoro-4-pyridyl)-1,2,4-triazin-3-yl]-3-(4-methoxyphenyl)urea]
- Human A2B Receptor pKi [2]: 6.94

SMILES: Cc1nsc(Nc2nnc(-c3ccncc3F)c(-c3cccnc3)n2)n1 [Example 5, N-(6-(3-fluoropyridin-4-yl)-5-(pyridin-3-yl)-1,2,4-triazin-3-yl)-3-methyl-1,2,4-thiadiazol-5-amine]
- Human A2A Receptor pKi [1]: <4.70
- Human A2B Receptor pKi [2]: 5.38
- IC50 [2]: 4660 nM

SMILES: CC(C)(C)c1n[nH]c(Nc2nnc(-c3ccncc3F)c(-c3ccccc3F)n2)n1 [Example 46, N-(3-tert-butyl-1H-1,2,4-triazol-5-yl)-5-(2-fluorophenyl)-6-(3-fluoropyridin-4-yl)-1,2,4-triazin-3-amine]
- Human A2B Receptor pKi [2]: 7.01

SMILES: Cc1cnc(-c2nc(Nc3cccc(F)c3)nnc2-c2ccncc2F)o1 [Example 17, N-(3-fluorophenyl)-6-(3-fluoropyridin-4-yl)-5-(5-methyloxazol-2-yl)-1,2,4-triazin-3-amine]
- Human A2A Receptor pKi [1]: 5.8
- Human A2B Receptor pKi [2]: 7.17
- IC50 [4]: 324 nM

SMILES: Fc1ccccc1-c1nc(Nc2nc(Cl)cs2)nnc1-c1ccnc(C(F)(F)F)c1 [Example 10, 4-chloro-N-(5-(2-fluorophenyl)-6-(2-(trifluoromethyl)pyridin-4-yl)-1,2,4-triazin-3-yl)thiazol-2-amine]
- Human A2A Receptor pKi [1]: <4.70
- Human A2B Receptor pKi [2]: 6.02
- IC50 [2]: 1070 nM

SMILES: Fc1cnccc1-c1nnc(Nc2nccs2)nc1-c1cccnc1 [Example 3, N-(6-(3-fluoropyridin-4-yl)-5-(pyridin-3-yl)-1,2,4-triazin-3-yl)thiazol-2-amine]
- Human A2A Receptor pKi [1]: <4.70
- Human A2B Receptor pKi [2]: 5.95
- IC50 [2]: 1250 nM
- IC50 [5]: 2000 nM
- IC50 [5, 7]: 2000 nM
